Key:
Format in all cases: in vivo
[1] = tested on: blackgrass (Alopecurus myosuroides); experiment: Test A postemergence; settings: Alopecurus myosuroides, post-emergence, 240 h
Summary of the method: (§1)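 Preemergence directed soil spray on seeded pots, or postemergence application to plants 2–10 cm, one- to two-leaf. Solvent mixture non-phytotoxic, with surfactant. Scored ~10 d later, visually, 0–100 vs untreated.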

[2] = tested on: Kochia (Kochia scoparia); experiment: Test A postemergence; settings: Bassia scoparia, post-emergence, 240 h
Summary of the method: as §1

[3] = tested on: giant foxtail (Setaria faberii); experiment: Test A postemergence; settings: Setaria faberi, post-emergence, 240 h
Summary of the method: as §1

[4] = tested on: ryegrass, Italian (Italian ryegrass, Lolium multiflorum); experiment: Test A postemergence; settings: Lolium multiflorum, post-emergence, 240 h
Summary of the method: as §1

[5] = tested on: wheat (Triticum aestivum); experiment: Test A postemergence; settings: Triticum aestivum, post-emergence, 240 h
Summary of the method: as §1

[6] = tested on: ragweed (common ragweed, Ambrosia elatior); experiment: Test A postemergence; settings: Ambrosia artemisiifolia, post-emergence, 240 h
Summary of the method: as §1

[7] = tested on: barnyardgrass (Echinochloa crus-galli); experiment: Test A postemergence; settings: Echinochloa crus-galli, post-emergence, 240 h
Summary of the method: as §1

[8] = tested on: corn (Zea mays); experiment: Test A postemergence; settings: Zea mays, post-emergence, 240 h
Summary of the method: as §1

[9] = tested on: Galium (catchweed bedstraw, Galium aparine); experiment: Test A postemergence; settings: Galium, post-emergence, 240 h
Summary of the method: as §1

[10] = tested on: pigweed (Amaranthus retroflexus); experiment: Test A postemergence; settings: Amaranthus retroflexus, post-emergence, 240 h
Summary of the method: as §1

[11] = tested on: sedge, umbrella (small-flower umbrella sedge, Cyperus difformis); experiment: Test B flooded paddy test; settings: Cyperus difformis, 250 g ai/ha, Flood; 0 to 100 scale where 0 is no effect and 100 is complete control; read-out: Sedge, Umbrella plant response rating
Summary of the method: (§2)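 Plants at 2-leaf stage flooded to 3 cm above soil, with compounds applied directly to paddy water and that depth maintained. Plants kept in greenhouse 13–15 d. Visual rating versus controls on a 0 (no effect) to 100 (complete control) scale.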

[12] = tested on: barnyardgrass (Echinochloa crus-galli); experiment: Test B flooded paddy test; settings: Echinochloa crus-galli, 250 g ai/ha, Flood; 0 to 100 scale where 0 is no effect and 100 is complete control; read-out: Barnyardgrass plant response rating
Summary of the method: as §2

[13] = tested on: ducksalad (Heteranthera limosa); experiment: Test B flooded paddy test; settings: Heteranthera limosa, 250 g ai/ha, Flood; 0 to 100 scale where 0 is no effect and 100 is complete control; read-out: Ducksalad plant response rating
Summary of the method: as §2

[14] = tested on: rice (Oryra sativa); experiment: Test B flooded paddy test; settings: Oryza sativa, 250 g ai/ha, Flood; 0 to 100 scale where 0 is no effect and 100 is complete control; read-out: Rice plant response rating
Summary of the method: as §2

[15] = tested on: Kochia (Kochia scoparia); experiment: Test A preemergence; settings: Bassia scoparia, pre-emergence, 240 h, 0 to 100 scale where 0 is no effect and 100 is complete control, read-out: Kochia plant response rating
Summary of the method: as §1

[16] = tested on: giant foxtail (Setaria faberii); experiment: Test A preemergence; settings: Setaria faberi, pre-emergence, 240 h, 0 to 100 scale where 0 is no effect and 100 is complete control, read-out: Foxtail, Giant plant response rating
Summary of the method: as §1

[17] = tested on: ryegrass, Italian (Italian ryegrass, Lolium multiflorum); experiment: Test A preemergence; settings: Lolium multiflorum, pre-emergence, 240 h, 0 to 100 scale where 0 is no effect and 100 is complete control, read-out: Ryegrass, Italian plant response rating
Summary of the method: as §1

[18] = tested on: ragweed (common ragweed, Ambrosia elatior); experiment: Test A preemergence; settings: Ambrosia artemisiifolia, pre-emergence, 240 h, 0 to 100 scale where 0 is no effect and 100 is complete control, read-out: Ragweed plant response rating
Summary of the method: as §1

[19] = tested on: barnyardgrass (Echinochloa crus-galli); experiment: Test A preemergence; settings: Echinochloa crus-galli, pre-emergence, 240 h, 0 to 100 scale where 0 is no effect and 100 is complete control, read-out: Barnyardgrass plant response rating
Summary of the method: as §1

[20] = tested on: pigweed (Amaranthus retroflexus); experiment: Test A preemergence; settings: Amaranthus retroflexus, pre-emergence, 240 h, 0 to 100 scale where 0 is no effect and 100 is complete control, read-out: Pigweed plant response rating
[21] = 125 g ai/ha, preemergence, approx. 10 d

In the case of `Cc1ccc([C@H]2CN(C)C(=O)[C@@H]2C(=O)Nc2cc(F)c(F)c(F)c2F)cc1` [Compound 1071], the pest or weed control at 125 g/ha ([1]; 125 g ai/ha, postemergence, visual injury on 0 to 100 scale (0 no effect, 100 complete control), approx. 10 d, read-out: Blackgrass plant response rating) is reported as 0%, the pest or weed control at 31 g/ha ([1]; Postemergence, 31 g ai/ha, visual injury after approx. 10 d, 0 to 100 scale, 0 no effect, 100 complete control, read-out: Plant response rating, Blackgrass) is reported as 0% and the pest or weed control at 125 g/ha ([2]; 125 g ai/ha, postemergence, visual injury on 0 to 100 scale (0 no effect, 100 complete control), approx. 10 d, read-out: Kochia plant response rating) is reported as 0%. For the same compound, the pest or weed control at 31 g/ha ([2]; Postemergence, 31 g ai/ha, visual injury after approx. 10 d, 0 to 100 scale, 0 no effect, 100 complete control, read-out: Plant response rating, Kochia) was 0%, the pest or weed control at 125 g/ha ([3]; 125 g ai/ha, postemergence, visual injury on 0 to 100 scale (0 no effect, 100 complete control), approx. 10 d, read-out: Foxtail, Giant plant response rating) was 80% and the pest or weed control at 31 g/ha ([3]; Postemergence, 31 g ai/ha, visual injury after approx. 10 d, 0 to 100 scale, 0 no effect, 100 complete control, read-out: Plant response rating, Foxtail, Giant) was 20%. The pest or weed control at 125 g/ha ([4]; 125 g ai/ha, postemergence, visual injury on 0 to 100 scale (0 no effect, 100 complete control), approx. 10 d, read-out: Ryegrass, Italian plant response rating) was 0%, the pest or weed control at 31 g/ha ([4]; Postemergence, 31 g ai/ha, visual injury after approx. 10 d, 0 to 100 scale, 0 no effect, 100 complete control, read-out: Plant response rating, Ryegrass, Italian) was 0% and the plant injury at 125 g/ha ([5]; 125 g ai/ha, postemergence, visual injury on 0 to 100 scale (0 no effect, 100 complete control), approx. 10 d, read-out: Wheat plant response rating) was 0%. It also gave a plant injury at 31 g/ha ([5]; Postemergence, 31 g ai/ha, visual injury after approx. 10 d, 0 to 100 scale, 0 no effect, 100 complete control, read-out: Plant response rating, Wheat) of 0%, a pest or weed control at 125 g/ha ([6]; 125 g ai/ha, postemergence, visual injury on 0 to 100 scale (0 no effect, 100 complete control), approx. 10 d, read-out: Ragweed plant response rating) of 0% and a pest or weed control at 31 g/ha ([6]; Postemergence, 31 g ai/ha, visual injury after approx. 10 d, 0 to 100 scale, 0 no effect, 100 complete control, read-out: Plant response rating, Ragweed) of 0%. The pest or weed control at 125 g/ha ([7]; 125 g ai/ha, postemergence, visual injury on 0 to 100 scale (0 no effect, 100 complete control), approx. 10 d, read-out: Barnyardgrass plant response rating) was 90%, the pest or weed control at 31 g/ha ([7]; Postemergence, 31 g ai/ha, visual injury after approx. 10 d, 0 to 100 scale, 0 no effect, 100 complete control, read-out: Plant response rating, Barnyardgrass) was 30% and the plant injury at 125 g/ha ([8]; 125 g ai/ha, postemergence, visual injury on 0 to 100 scale (0 no effect, 100 complete control), approx. 10 d, read-out: Corn plant response rating) was 0%. It also gave a Corn plant response rating (crop injury, 0 = no effect, 100 = complete kill) at 31 g/ha ([8]; Postemergence, 31 g ai/ha, visual injury after approx. 10 d, 0 to 100 scale, 0 no effect, 100 complete control) of 0%, a pest or weed control at 125 g/ha ([9]; 125 g ai/ha, postemergence, visual injury on 0 to 100 scale (0 no effect, 100 complete control), approx. 10 d, read-out: Galium plant response rating) of 0% and a pest or weed control at 31 g/ha ([9]; Postemergence, 31 g ai/ha, visual injury after approx. 10 d, 0 to 100 scale, 0 no effect, 100 complete control, read-out: Plant response rating, Galium) of 0%. The pest or weed control at 125 g/ha ([10]; 125 g ai/ha, postemergence, visual injury on 0 to 100 scale (0 no effect, 100 complete control), approx. 10 d, read-out: Pigweed plant response rating) was 0%, the pest or weed control at 31 g/ha ([10]; Postemergence, 31 g ai/ha, visual injury after approx. 10 d, 0 to 100 scale, 0 no effect, 100 complete control, read-out: Plant response rating, Pigweed) was 0% and the pest or weed control at 250 g/ha [11] was 0%. For the same compound, the pest or weed control at 250 g/ha [12] was 40%, the pest or weed control at 250 g/ha [13] was 98% and the pest or weed control at 250 g/ha [14] was 0%. It also gave a pest or weed control at 31 g/ha ([15]; 31 g ai/ha, Preemergence) of 0%, a pest or weed control at 125 g/ha [15, 21] of 0% and a pest or weed control at 31 g/ha ([16]; 31 g ai/ha, Preemergence) of 90%. For the same compound, the pest or weed control at 125 g/ha [16, 21] was 100%, the pest or weed control at 31 g/ha ([17]; 31 g ai/ha, Preemergence) was 0% and the pest or weed control at 125 g/ha [17, 21] was 0%. For the same compound, the pest or weed control at 31 g/ha ([18]; 31 g ai/ha, Preemergence) was 0%, the pest or weed control at 125 g/ha [18, 21] was 0% and the pest or weed control at 31 g/ha ([19]; 31 g ai/ha, Preemergence) was 40%. The pest or weed control at 125 g/ha [19, 21] was 90%, the pest or weed control at 31 g/ha ([20]; 31 g ai/ha, Preemergence) was 0% and the pest or weed control at 125 g/ha [20, 21] was 0%.
